ChEMBL document CHEMBL4513139, “CO-ADD screening of University of Strathclyde (UK) compounds”
Converted amounts (≈) assume the structure as drawn.

Experiments:
[1] = system: HEK293; assay: cells; format: functional, Homo sapiens, ATCC CRL1573; conditions: Homo sapiens, ATCC CRL1573, HEK293; ASSAY_TEST Inhibition of Cell Viability; detection method Resazurin; Fluorescence (ex560/em590); MEDIA DMEM with 10% FBS; plate type 384well; TC; CORNING #3712; time 18 hr; read-out: CC50
[2] = system: Staphylococcus aureus; assay: microbe, parasite or virus in culture; conditions: ATCC 43300, 18 h, ASSAY_TEST Inhibition of Bacterial Growth, detection method Absorption (OD600), MEDIA CAMHB, plate type 384well, NBS, CORNING #3640
Description: Antibacterial activity against Staphylococcus aureus MRSA ATCC 43300 (CO-ADD:GP_020); MIC in CAMBH media, using NBS plates, by OD(600)

[3] = system: Candida albicans; assay: microbe, parasite or virus in culture; conditions: ATCC 90028, ASSAY_TEST Inhibition of Fungal Growth, detection method Absorption (OD530), plate type 384well, NBS, CORNING #3640
Description: Antifungal activity against Candida albicans ATCC 90028 (CO-ADD:FG_001); MIC in YNB media using NBS plates, by OD630

[4] = system: Escherichia coli; assay: microbe, parasite or virus in culture; conditions: ATCC 25922, 18 h, ASSAY_TEST Inhibition of Bacterial Growth, detection method Absorption (OD600), MEDIA CAMHB, plate type 384well, NBS, CORNING #3640
Description: Antibacterial activity against Escherichia coli ATCC 25922 (CO-ADD:GN_001); MIC in CAMBH media using NBS plates, by OD(600)

[5] = system: Acinetobacter baumannii; assay: microbe, parasite or virus in culture; conditions: ATCC 19606, 18 h, ASSAY_TEST Inhibition of Bacterial Growth, detection method Absorption (OD600), MEDIA CAMHB, plate type 384well, NBS, CORNING #3640
Description: Antibacterial activity against Acinetobacter baumannii ATCC 19606 (CO-ADD:GN_034); MIC in CAMBH media using NBS plates, by OD600

[6] = system: Pseudomonas aeruginosa; assay: microbe, parasite or virus in culture; conditions: ATCC 27853, 18 h, ASSAY_TEST Inhibition of Bacterial Growth, detection method Absorption (OD600), MEDIA CAMHB, plate type 384well, NBS, CORNING #3640
Description: Antibacterial activity against Pseudomonas aeruginosa ATCC 27853 (CO-ADD:GN_042); MIC in CAMBH media using NBS plates, by OD(600)

[7] = system: Klebsiella pneumoniae; assay: microbe, parasite or virus in culture; conditions: ATCC 700603, 18 h, ASSAY_TEST Inhibition of Bacterial Growth, detection method Absorption (OD600), MEDIA CAMHB, plate type 384well, NBS, CORNING #3640
Description: Antibacterial activity against Klebsiella pneumoniae MDR ATCC 70063 (CO-ADD:GN_003); MIC in CAMBH media using NBS plates, by OD(600)

[8] = system: Cryptococcus neoformans
Description: Antifungal activity against Cryptococcus neoformans H99 ATCC 208821 (CO-ADD:FG_002); MIC in YNB media using NBS plates, by Resazurin OD(600-570)

| MIC [2] | MIC [3] | MIC [4] | MIC [5] | MIC [6] | MIC [7] | MIC [8] | SMILES | CC50 [1] |
| --- | --- | --- | --- | --- | --- | --- | --- | --- |
| > 32 µg/mL | > 32 µg/mL | > 32 µg/mL | > 32 µg/mL | > 32 µg/mL | > 32 µg/mL | > 32 µg/mL | Cn1cc(NC(=O)c2ccc(/C=C/c3cnc4ccccc4c3)cc2)cc1C(=O)Nc1nc(C(=O)NCCN2CCOCC2)c(CCc2ccccc2)s1.O=C(O)C(F)(F)F.O=C(O)C(F)(F)F | > 32 µg/mL |
| ≤ 0.25 µg/mL | 32 µg/mL | > 32 µg/mL | > 32 µg/mL | > 32 µg/mL | > 32 µg/mL | 16 µg/mL | COC1CCN(CCNC(=O)c2cc(NC(=O)c3cc(NC(=O)c4ccc(/C=C/c5cnc6ccccc6c5)cc4)cn3C)cn2C)CC1 | 2.89 µg/mL (≈ 4.38 µM) |
| > 32 µg/mL | > 32 µg/mL | > 32 µg/mL | > 32 µg/mL | > 32 µg/mL | > 32 µg/mL | > 32 µg/mL | COc1cccc(/C=C/c2ccc(C(=O)Nc3cc(C(=O)Nc4cc(C(=O)NCCCN(C)C)n(C)c4)n(C)c3)cc2)c1.O=C(O)C(F)(F)F | 11.4 µg/mL |
| > 32 µg/mL | 32 µg/mL | > 32 µg/mL | > 32 µg/mL | > 32 µg/mL | > 32 µg/mL | 2 µg/mL | Cn1cc(NC(=O)c2ccc(/C=C/c3ccncc3)cc2)cc1C(=O)Nc1cc(C(=O)NCCN2CCOCC2)n(CCCN2CCN(Cc3cccc4ccccc34)CC2)c1.O=C(O)C(F)(F)F.O=C(O)C(F)(F)F.O=C(O)C(F)(F)F.O=C(O)C(F)(F)F | 2.03 µg/mL |
| 2 µg/mL | > 32 µg/mL | > 32 µg/mL | > 32 µg/mL | > 32 µg/mL | > 32 µg/mL | > 32 µg/mL | COCCOC1CCN(CCNC(=O)c2cc(NC(=O)c3cc(NC(=O)c4ccc(/C=C/c5ccc(OC)cc5)nc4)cn3C)cn2C)CC1 | 3 µg/mL (≈ 4.39 µM) |
| 1 µg/mL | > 32 µg/mL | > 32 µg/mL | > 32 µg/mL | > 32 µg/mL | > 32 µg/mL | ≤ 0.25 µg/mL | CC(C)CCc1sc(NC(=O)c2cc(NC(=O)c3cc(NC(=N)c4cnc5ccccc5c4)cn3C)cn2C)nc1C(=O)NCCCN(C)C.O=C(O)C(F)(F)F.O=C(O)C(F)(F)F | 1.18 µg/mL |
| 32 µg/mL | > 32 µg/mL | > 32 µg/mL | > 32 µg/mL | > 32 µg/mL | > 32 µg/mL | 16 µg/mL | COc1cccc(C(=N)Nc2cc(C(=O)Nc3nc(C(=O)NCCN4CCOCC4)c(CCc4ccccc4)s3)n(C)c2)c1.O=C(O)C(F)(F)F.O=C(O)C(F)(F)F | 2.59 µg/mL |
| 4 µg/mL | > 32 µg/mL | > 32 µg/mL | > 32 µg/mL | > 32 µg/mL | > 32 µg/mL | > 32 µg/mL | Cn1cc(NC(=O)c2ccc(/C=C/c3ccncc3)cc2)cc1C(=O)Nc1cc(C(=O)NCCN2CCOCC2)n(CCCN2CCOCC2)c1.O=C(O)C(F)(F)F.O=C(O)C(F)(F)F | 4.65 µg/mL |
| > 32 µg/mL | > 32 µg/mL | > 32 µg/mL | > 32 µg/mL | > 32 µg/mL | > 32 µg/mL | > 32 µg/mL | COc1ccc(/C=C/c2ccc(C(=O)Nc3cc(C(=O)Nc4cc(C(=O)NCCN5CCC(OC)CC5)n(C)c4)n(C)c3)cc2)cc1.O=C(O)C(F)(F)F | 6.43 µg/mL |

The remaining lines, values behind:

| SMILES | MIC [2] | MIC [3] | MIC [4] | MIC [5] | MIC [6] | MIC [7] | MIC [8] | CC50 [1] |
| --- | --- | --- | --- | --- | --- | --- | --- | --- |
| Cn1cc(NC(=O)c2cc(NC(=O)c3ccc(/C=C/c4ccc(C(F)(F)F)cc4)cc3)cn2C)cc1C(=O)NCCN1CCOCC1.O=C(O)C(F)(F)F | > 32 µg/mL | > 32 µg/mL | > 32 µg/mL | > 32 µg/mL | > 32 µg/mL | > 32 µg/mL | > 32 µg/mL | > 32 µg/mL |
| Cn1cc(NC(=O)c2ccc(/C=C/c3ccncc3)cc2)cc1C(=O)Nc1cc(C(=O)NCCN2CCOCC2)n(CCCCl)c1.O=C(O)C(F)(F)F.O=C(O)C(F)(F)F | > 32 µg/mL | > 32 µg/mL | > 32 µg/mL | > 32 µg/mL | > 32 µg/mL | > 32 µg/mL | 16 µg/mL | 2.7 µg/mL |
| COc1ccc(/C=C/c2ccc(C(=O)Nc3cc(C(=O)Nc4cc(C(=O)NCCN5CCOCC5)n(C)c4)n(C)c3)cn2)cc1.O=C(O)C(F)(F)F.O=C(O)C(F)(F)F | > 32 µg/mL | > 32 µg/mL | > 32 µg/mL | > 32 µg/mL | > 32 µg/mL | > 32 µg/mL | > 32 µg/mL | 27.1 µg/mL |
| COC1CCN(CCNC(=O)c2cc(NC(=O)c3cc(NC(=O)c4ccc(/C=C/c5ccc(N(C)C)cc5)nc4)cn3C)cn2C)CC1.O=C(O)C(F)(F)F.O=C(O)C(F)(F)F | ≤ 0.25 µg/mL | 2 µg/mL | > 32 µg/mL | > 32 µg/mL | > 32 µg/mL | > 32 µg/mL | 2 µg/mL | 1.28 µg/mL |
| Cn1cc(NC(=O)c2cc(NC(=O)c3ccccc3)cn2C)cc1C(=O)NCCC(=N)N.O=C(O)C(F)(F)F | > 32 µg/mL | > 32 µg/mL | > 32 µg/mL | > 32 µg/mL | > 32 µg/mL | > 32 µg/mL | > 32 µg/mL | 7.43 µg/mL |
| COc1ccc(C(=N)Nc2cc(C(=O)Nc3cc(C(=O)NCCN4CCOCC4)n(CCCc4cn(CCc5ccccc5)nn4)c3)n(C)c2)cc1.O=C(O)C(F)(F)F.O=C(O)C(F)(F)F | > 32 µg/mL | > 32 µg/mL | > 32 µg/mL | > 32 µg/mL | > 32 µg/mL | > 32 µg/mL | > 32 µg/mL | > 32 µg/mL |
| CN(C)c1ccc(/C=C/c2ccc(C(=O)Nc3cc(C(=O)Nc4cc(C(=O)NCCN5CCOCC5)n(C)c4)n(C)c3)cn2)cc1.O=C(O)C(F)(F)F | 1 µg/mL | 2 µg/mL | > 32 µg/mL | > 32 µg/mL | > 32 µg/mL | > 32 µg/mL | 1 µg/mL | 1.11 µg/mL |
| COc1ccc(/C=C/c2ccc(C(=O)Nc3cc(C(=O)Nc4cc(C(=O)NCCN5CCOCC5)n(CCCc5cn(CCc6ccccc6)nn5)c4)n(C)c3)cn2)cc1 | > 32 µg/mL | > 32 µg/mL | > 32 µg/mL | > 32 µg/mL | > 32 µg/mL | > 32 µg/mL | > 32 µg/mL | > 32 µg/mL |
| COc1cccc(C(=N)Nc2cc(C(=O)Nc3cc(C(=O)Nc4nc(C(=O)NCCCN(C)C)c(CCC(C)C)s4)n(C)c3)n(C)c2)c1.O=C(O)C(F)(F)F.O=C(O)C(F)(F)F | 2 µg/mL | > 32 µg/mL | 32 µg/mL | > 32 µg/mL | > 32 µg/mL | > 32 µg/mL | 2 µg/mL | > 32 µg/mL |
| COCCOC1CCN(CCNC(=O)c2cc(NC(=O)c3cc(NC(=O)c4ccc(/C=C/c5ccc(OC)cc5)cc4)cn3C)cn2C)CC1.O=S(=O)(O)O | 16 µg/mL | > 32 µg/mL | > 32 µg/mL | > 32 µg/mL | > 32 µg/mL | > 32 µg/mL | > 32 µg/mL | 1.57 µg/mL |
| Cn1cc(NC(=O)c2cc(NC(=O)c3ccc(/C=C/c4cnc5ccccc5c4)cc3)cn2C)cc1C(=O)NCC[N+]1([O-])CCCCC1.O=C(O)C(F)(F)F | > 32 µg/mL | > 32 µg/mL | > 32 µg/mL | > 32 µg/mL | > 32 µg/mL | > 32 µg/mL | > 32 µg/mL | 2.97 µg/mL |
| COc1cccc(/C=C/c2ccc(C(=O)Nc3cc(C(=O)Nc4cc(C(=O)NCCN5CCC(O)CC5)n(C)c4)n(C)c3)cc2)c1.O=C(O)C(F)(F)F | 16 µg/mL | > 32 µg/mL | > 32 µg/mL | > 32 µg/mL | > 32 µg/mL | > 32 µg/mL | > 32 µg/mL | 11.7 µg/mL |
| COc1cccc(/C=C/c2ccc(C(=O)Nc3cc(C(=O)Nc4cc(C(=O)NCCN5CCOCC5)n(CCCc5cn(CCc6ccccc6)nn5)c4)n(C)c3)cc2)c1.O=C(O)C(F)(F)F | > 32 µg/mL | > 32 µg/mL | > 32 µg/mL | > 32 µg/mL | > 32 µg/mL | > 32 µg/mL | 32 µg/mL | > 32 µg/mL |
| Cn1cc(NC(=O)c2cc(NC(=N)c3ccccc3)cn2C)cc1C(=O)NCCC(=N)N.O=C(O)C(F)(F)F.O=C(O)C(F)(F)F | > 32 µM | > 32 µM | > 32 µM | > 32 µM | > 32 µM | > 32 µM | > 32 µM | > 32 µg/mL |
| Cc1ncc(Cn2cc(CCOS(C)(=O)=O)nn2)c(N)n1 | > 32 µg/mL | 1 µg/mL | > 32 µg/mL | > 32 µg/mL | > 32 µg/mL | > 32 µg/mL | 2 µg/mL | > 32 µg/mL |
| Cn1cc(NC(=O)c2ccc(/C=C/c3ccncc3)cc2)cc1C(=O)Nc1cc(C(=O)NCCN2CCOCC2)n(CCCSc2ccccc2)c1.O=C(O)C(F)(F)F.O=C(O)C(F)(F)F | > 32 µg/mL | > 32 µg/mL | > 32 µg/mL | > 32 µg/mL | > 32 µg/mL | > 32 µg/mL | > 32 µg/mL | > 32 µg/mL |
